Columns and labels:
[1] = target: T1, Replicase polyprotein 1ab (Severe acute respiratory syndrome coronavirus 2, UniProt P0DTD1); test: Inhibition of SARS CoV-2 main protease
[2] = system: SARS-CoV-2; test: Antiviral activity against SARS-CoV-2 infected in African green monkey Vero cells assessed as inhibition of viral replication measured after 24 hrs post infection by qRT-PCR analysis; type: functional, organism-based; conditions: Severe acute respiratory syndrome coronavirus 2, Vero
[3] = Cytotoxicity against African green monkey Vero cells incubated for 3 days by automatic cell counting method; type: toxicity, cell-based; conditions: chlorocebus sabaeus, time 3 day
[4] = target: T1, Replicase polyprotein 1ab; test: Binding affinity to SARS CoV-2 main protease assessed as inhibition constant

## COc1cc(C)cc2c(-c3c(O)cc(O)c4c3C[C@@H](C)N[C@@H]4C)ccc(O)c12 (stereo in doubt; 1b) [KORUPENSAMINE A]
[1]
  IC50: 71.9 µM

## COc1cc(C)cc2c(-c3c(O)cc(O)c4c3C[C@@H](C)N[C@@H]4C)ccc(O)c12 (stereo in doubt; 1a) [KORUPENSAMINE A]
[1]
  IC50: 2.52 µM
[2]
  EC50: 4.23 µM
[3]
  CC50 at 72 h: 35.1 µM
[4]
  Ki: 1.42 µM

Source: ChEMBL document CHEMBL5346909, “Korupensamine A, but not its atropisomer, korupensamine B, inhibits SARS-CoV-2 in vitro by targeting its main protease (Mpro)” (Eur J Med Chem, 2023)
